Legend:
Assay type in all cases: cell-based
S. aureus = assay: Disc diffusion assay of creatine esters (Example 6); details: approx. 50 μL anhydrous polyethylene glycol carrier with 28% by weight agent
Protocol: Four (4) different creatine esters were prepared according to the method of U.S. Pat. No. 6,897,334 to Vennerstrom. The esters thus prepared were activated in the manner described herein to impart antibacterial activity thereto. Four (4) test formulations were prepared, each including approximately 50 μL of an anhydrous polyethylene glycol carrier containing 28% by weight of a different creatine ester. Each formulation was added to a 6 mm disc and inverted onto a brain heart infusion agar plate that was previously spread with S. aureus at 10^5 organisms per mL. Plates were incubated at 37° C. overnight and the clear zones showing inhibition of bacterial growth were measured.

Staphylococcus aureus = assay: Disc assay of creatinine activated with different acids (Example 1, FIG. 1); details: for antibacterial activity after acid activation (FIG. 1): 5 mg acidified creatinine in Eridex on 6 mm disc, pH 5.0-5.5, S. aureus 10^5 per mL; for antibacterial activity of acid in Eridex alone: without creatinine at pH 5.5
Protocol: A 2 molar solution of anhydrous creatinine (Sigma-Aldrich Chemical Co. St. Louis, Mo.) was prepared in water (113 mg in 0.5 ml H2O) and adjusted to pH 5.0-5.5 with different acids. Twenty five microliters of each pH adjusted solution was added to 30 milligrams of a powdered carrier, Eridex™, (crystalline sugar alcohol) (Cargill Inc. Cedar Rapids, Iowa), and stirred into a thickened slurry. Approximately 50 microliters of each mixture, containing 5 mg of acidified creatinine, was applied to a 6 mm disc and inverted onto a brain heart infusion agar plate that was spread one hour prior with Staphylococcus aureus diluted to 10^5 organisms per milliliter. Plates were incubated at 37° C. overnight and the clear zones showing inhibition of bacterial growth were measured. Each sample was run in duplicate and reported as an average +/−1 mm of the two measurements. Creatinine HCl was used as an internal standard on each plate to provide uniformity from plate to plate (measurements varied <0.5 mm). Hydrochloride sig, a commercial creatinine HCl salt from Sigma-Aldrich, was used at pH 5.0 with no adjustment.

[1] = system: Escherichia coli beta lactamase producer (ESBL); details: E. coli ESBL; 50 mg anhydrous topical cream with 28% by weight agent; gentamicin 10 μg disc
Protocol: (§1) This testing involved the use of 50 mg of an anhydrous topical cream containing the antibacterial agent of the invention in an amount of 28% by weight and 10 μg of gentamicin, impregnated into a standard commercially available disc (Remel, Lenoxa Kans.).

[2] = system: Pseudomonas aeruginosa high level resistance (HLR); assay: Disc diffusion assay, CEE vs gentamicin; details: P. aeruginosa HLR; 50 mg anhydrous topical cream with 28% by weight agent; gentamicin 10 μg disc
Protocol: as §1

[3] = system: Escherichia coli laboratory strain 35150; assay: Disc diffusion assay, CEE vs gentamicin; details: E. coli laboratory strain 35150; 50 mg anhydrous topical cream with 28% by weight agent; gentamicin 10 μg disc
Protocol: as §1

[4] = system: Pseudomonas aeruginosa laboratory strain 27853; assay: Disc diffusion assay, CEE vs gentamicin; details: P. aeruginosa laboratory strain 27853; 50 mg anhydrous topical cream with 28% by weight agent; gentamicin 10 μg disc
Protocol: as §1

[5] = system: Enterococcus faecalis laboratory strain 29212; assay: Disc diffusion assay, CEE vs gentamicin; details: E. faecalis laboratory strain 29212; 50 mg anhydrous topical cream with 28% by weight agent; gentamicin 10 μg disc
Protocol: as §1

[6] = system: Candida albicans laboratory strain 24433; assay: Disc diffusion assay, CEE vs gentamicin; details: C. albicans laboratory strain 24433; 50 mg anhydrous topical cream with 28% by weight agent; gentamicin 10 μg disc
Protocol: as §1

[7] = system: Acinetobacter baumannii high level resistance (HLR); assay: Disc diffusion assay, CEE vs gentamicin; details: A. baumannii HLR; 50 mg anhydrous topical cream with 28% by weight agent; gentamicin 10 μg disc
Protocol: as §1

[8] = system: Enterococcus faecium vancomycin resistant (VRE); assay: Disc diffusion assay, CEE vs gentamicin; details: E. faecium VRE; 50 mg anhydrous topical cream with 28% by weight agent; gentamicin 10 μg disc
Protocol: as §1

[9] = system: Staphylococcus aureus methicillin resistant (MRSA); assay: Disc diffusion assay, CEE vs gentamicin; details: S. aureus MRSA; 50 mg anhydrous topical cream with 28% by weight agent; gentamicin 10 μg disc
Protocol: as §1

[10] = system: Staphylococcus aureus laboratory strain 29213; assay: Disc diffusion assay, CEE vs gentamicin; details: S. aureus laboratory strain 29213; 50 mg anhydrous topical cream with 28% by weight agent; gentamicin 10 μg disc
Protocol: as §1

## CN(CC(=O)OCc1ccccc1)C(=N)N [Benzyl]
S. aureus
  Zone of Inhibition: 23 mm

## CCCCCCCCOC(=O)CN(C)C(=N)N [Octyl]
S. aureus
  Zone of Inhibition: 27 mm

## CC(=O)O [acetate]
Staphylococcus aureus
  antibacterial activity after acid activation (FIG. 1): significant activity
Staphylococcus aureus; listed as creatinine activated with acetic acid
  antibacterial activity after acid activation (FIG. 1): substantially greater antibacterial activity than creatinine activated with nitric or hydrochloric acid

## CC(=O)O [acetic acid, reference compound]
Staphylococcus aureus
  antibacterial activity of acid in Eridex alone: no antibacterial activity

## O=C(O)CC(O)(CC(=O)O)C(=O)O [citric acid, reference compound]
Staphylococcus aureus
  antibacterial activity of acid in Eridex alone: no antibacterial activity

## Gentamicin [Gn, reference compound]
[1]
  Zone of Inhibition: 24 mm
[2]
  Zone of Inhibition: 8 mm
[3]
  Zone of Inhibition: 21 mm
[4]
  Zone of Inhibition: 21 mm
[5]
  Zone of Inhibition: 14 mm
[6]
  Zone of Inhibition: 8 mm
[7]
  Zone of Inhibition: 6 mm
[8]
  Zone of Inhibition: 8 mm
[9]
  Zone of Inhibition: 7 mm
[10]
  Zone of Inhibition: 24 mm

## citrate
Staphylococcus aureus
  antibacterial activity after acid activation (FIG. 1): significant activity

## fumaric
Staphylococcus aureus
  antibacterial activity after acid activation (FIG. 1): little to no antibacterial activity

## sulfuric
Staphylococcus aureus
  antibacterial activity after acid activation (FIG. 1): little to no antibacterial activity

Reference: patent US20130243847A1, “ACTIVATED CREATININE AND PRECURSORS THEREOF AS ANTIBACTERIAL AGENTS, COMPOSITIONS AND PRODUCTS CONTAINING SUCH AGENTS AND USE THEREOF” (BOARD OF REGENTS OF THE UNIVERSITY OF NEBRASKA, priority 2010, published 2013)
